Experimental data from US10479780B2, “Aminopyrazole derivatives” (Chugai Seiyaku Kabushiki Kaisha, priority 2015, dated 2019).
Read-outs that look alike come from different tables or passages of the source.

Assays:
Type in all cases: biochemical
human Lck enzyme = molecular target: T1, human Lck enzyme (Homo sapiens, UniProt P06239); assay: Lck enzyme inhibitory activity (time-resolved fluorometry, biotinylated peptide phosphorylation); conditions: read-out: LCK_IC50
T1 construct: purchased Carna Biosciences, Inc. 08-170
T1 sequence (P06239 whole entry): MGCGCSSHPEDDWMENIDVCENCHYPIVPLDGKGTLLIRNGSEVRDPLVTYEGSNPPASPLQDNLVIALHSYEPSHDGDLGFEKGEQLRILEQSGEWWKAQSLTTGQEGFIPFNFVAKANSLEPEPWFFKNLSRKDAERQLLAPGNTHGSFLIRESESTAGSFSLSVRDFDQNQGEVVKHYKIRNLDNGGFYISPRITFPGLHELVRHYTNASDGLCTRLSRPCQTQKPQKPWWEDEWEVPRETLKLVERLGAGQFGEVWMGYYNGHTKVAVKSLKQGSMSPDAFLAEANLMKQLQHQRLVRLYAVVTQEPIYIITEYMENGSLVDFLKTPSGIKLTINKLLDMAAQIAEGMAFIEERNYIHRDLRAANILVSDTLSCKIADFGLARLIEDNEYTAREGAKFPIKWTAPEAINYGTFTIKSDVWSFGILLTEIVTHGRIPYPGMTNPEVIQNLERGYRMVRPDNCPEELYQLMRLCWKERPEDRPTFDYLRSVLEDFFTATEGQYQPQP
Summary of the method: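 Readout pairs a europium cryptate-labelled anti-phosphotyrosine antibody with XL665-streptavidin, measured by time-resolved fluorescence. IC50 derived from percent inhibition against untreated controls.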

human Yes1 enzyme = molecular target: T2, human Yes1 enzyme (Homo sapiens, UniProt P07947); assay: Yes1 enzyme inhibitory activity (time-resolved fluorometry, biotinylated peptide phosphorylation); conditions: read-out: YES_IC50
T2 construct: made in house
T2 sequence (P07947 whole entry): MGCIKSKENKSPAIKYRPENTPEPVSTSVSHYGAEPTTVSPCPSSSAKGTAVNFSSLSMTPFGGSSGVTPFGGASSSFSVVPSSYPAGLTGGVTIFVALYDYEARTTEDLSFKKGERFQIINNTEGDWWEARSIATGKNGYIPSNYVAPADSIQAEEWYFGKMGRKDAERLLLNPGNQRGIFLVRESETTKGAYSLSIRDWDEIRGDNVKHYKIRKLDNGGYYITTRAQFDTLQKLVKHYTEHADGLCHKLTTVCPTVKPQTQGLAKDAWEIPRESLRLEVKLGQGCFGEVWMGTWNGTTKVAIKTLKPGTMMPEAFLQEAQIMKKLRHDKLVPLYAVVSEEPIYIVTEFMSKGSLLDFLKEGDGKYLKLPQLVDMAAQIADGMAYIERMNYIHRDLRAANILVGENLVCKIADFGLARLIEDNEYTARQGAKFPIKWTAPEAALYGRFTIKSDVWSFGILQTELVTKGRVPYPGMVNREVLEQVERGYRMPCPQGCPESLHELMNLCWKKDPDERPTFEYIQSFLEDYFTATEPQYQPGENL
Summary of the method: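 Inhibition was expressed against a compound-free control to give IC50, using TR-FRET read-out (Eu-cryptate anti-pTyr antibody, streptavidin-XL665).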

human Src enzyme = molecular target: T3, human Src enzyme (Homo sapiens, UniProt P12931); assay: Src enzyme inhibitory activity (time-resolved fluorometry, biotinylated peptide phosphorylation); conditions: read-out: SRC_IC50
T3 construct: purchased Carna Biosciences, Inc. 08-173
T3 sequence (P12931 whole entry): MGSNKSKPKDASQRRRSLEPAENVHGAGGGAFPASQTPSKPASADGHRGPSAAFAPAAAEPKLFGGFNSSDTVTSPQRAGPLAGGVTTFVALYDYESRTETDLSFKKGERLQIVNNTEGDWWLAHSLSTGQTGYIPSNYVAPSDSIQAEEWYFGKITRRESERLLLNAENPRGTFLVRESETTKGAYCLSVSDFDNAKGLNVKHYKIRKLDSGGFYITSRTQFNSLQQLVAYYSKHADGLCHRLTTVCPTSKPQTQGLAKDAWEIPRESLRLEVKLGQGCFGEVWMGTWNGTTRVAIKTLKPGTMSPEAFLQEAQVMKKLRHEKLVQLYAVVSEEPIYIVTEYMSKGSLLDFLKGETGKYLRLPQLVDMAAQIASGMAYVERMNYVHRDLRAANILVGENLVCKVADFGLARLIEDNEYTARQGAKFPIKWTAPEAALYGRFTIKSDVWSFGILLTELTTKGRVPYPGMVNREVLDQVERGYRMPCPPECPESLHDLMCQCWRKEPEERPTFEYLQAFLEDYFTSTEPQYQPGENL
Summary of the method: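 Compounds were tested for blocking tyrosine phosphorylation of a biotinylated peptide substrate by recombinant human Src. Phosphorylated product was quantified by time-resolved fluorometry using europium cryptate and XL665 conjugates, and IC50 was calculated against the compound-free control.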

[1] = biotinylated peptide phosphorylation

Compound: Cc1cc(Oc2c(F)cccc2F)ncc1-n1ncc(C(=O)c2cc3cc(C(C)C)c(NS(=O)(=O)N4C5CCC4COC5)cc3[nH]2)c1N [Example 5-1-303, N-[2-[5-amino-1-[6-(2,6-difluorophenoxy)-4-methylpyridin-3-yl]pyrazole-4-carbonyl]-5-propan-2-yl-1H-indol-6-yl]-3-oxa-8-azabicyclo [3.2.1]octane-8-sulfonamide]
- IC50 (human Lck enzyme): 0.32 µM
- IC50 (human Yes1 enzyme): 0.027 µM
- IC50 (human Src enzyme): 1.5 µM

Compound: Cc1cc(-n2ncc(C(=O)c3cc4cc(OC5CCN(C(C)C)CC5)c(-c5cccs5)cc4[nH]3)c2N)ccc1Oc1ccccc1F [Example 5-1-238, [5-amino-1-[4-(2-fluorophenoxy)-3-methylphenyl]pyrazol-4-yl]-[5-(1-propan-2-ylpiperidin-4-yl)oxy-6-thiophen-2-yl-1H-indol-2-yl]methanone]
- IC50 (human Lck enzyme): 0.34 µM
- IC50 (human Yes1 enzyme): 0.0081 µM
- IC50 (human Src enzyme): 0.86 µM

Compound: Cc1cc(Oc2c(F)cccc2F)ncc1-n1ncc(C(=O)c2cc3cc(F)c(N4CC5(CCOCC5)NS4(=O)=O)cc3[nH]2)c1N [Example 5-1-400, [5-amino-1-[6-(2,6-difluorophenoxy)-4-methylpyridin-3-yl]pyrazol-4-yl]-[6-(2,2-dioxo-8-oxa-2λ6-thia-13-diazaspiro[4.5]decan-3-yl)-5-fluoro-1H-indol-2-yl]methanone]
- IC50 (human Lck enzyme; [1]): 0.014 µM
- IC50 (human Yes1 enzyme; [1]): 0.0021 µM
- IC50 (human Src enzyme; [1]): 0.076 µM

Compound: Cc1cc2cc(C(=O)c3cnn(-c4ccc(Oc5ccccc5F)cc4C)c3N)[nH]c2cc1NS(=O)(=O)CC(=O)N1CCOCC1 [Example 4-10-007, N-{2-{5-amino-1-[4-(2-fluorophenoxy)-2-methylphenyl]pyrazole-4-carbonyl}-5-methyl-1H-indol-6-yl}-2-morpholin-4-yl-2-oxoethanesulfonamide]
- IC50 (human Lck enzyme; [1]): 0.0085 µM
- IC50 (human Yes1 enzyme; [1]): 0.00048 µM
- IC50 (human Src enzyme; [1]): 0.013 µM

Compound: Cc1cc(Oc2ccccc2F)ccc1-n1ncc(C(=O)c2cc3cc(F)c(NS(=O)(=O)c4c(F)cc(F)cc4F)cc3[nH]2)c1N [Example 5-1-566, N-[2-[5-amino-1-[4-(2-fluorophenoxy)-2-methylphenyl]pyrazole-4-carbonyl]-5-fluoro-1H-indol-6-yl]-2,4,6-trifluorobenzenesulfonamide]
- IC50 (human Lck enzyme; [1]): 0.34 µM
- IC50 (human Yes1 enzyme; [1]): 0.0056 µM
- IC50 (human Src enzyme; [1]): 0.81 µM

Compound: Cc1cc(Oc2c(F)cccc2F)ncc1-n1ncc(C(=O)c2cc3cc(OCC(F)F)c(N4C(=O)NC5(CCN(Cc6ccccc6)C5)C4=O)cc3[nH]2)c1N (stereo not drawn) [Example 5-1-354, 3-[2-[5-amino-1-[6-(2,6-difluorophenoxy)-4-methylpyridin-3-yl]pyrazole-4-carbonyl]-5-(2,2-difluoroethoxy)-1H-indol-6-yl]-7-benzyl-1,3,7-triazaspiro[4.4]nonane-2,4-dione]
- IC50 (human Lck enzyme): 0.0029 µM
- IC50 (human Yes1 enzyme): 0.0014 µM
- IC50 (human Src enzyme): 0.013 µM

Compound: Cc1cc(-n2ncc(C(=O)c3cc4cc(OCC(F)F)c(NS(C)(=O)=O)cc4[nH]3)c2N)ccc1Oc1ccccc1F [Example 5-1-166, N-[2-[5-amino-1-[4-(2-fluorophenoxy)-3-methylphenyl]pyrazole-4-carbonyl]-5-(2,2-difluoroethoxy)-1H-indol-6-yl] methanesulfonamide]
- IC50 (human Lck enzyme): 0.25 µM
- IC50 (human Yes1 enzyme): 0.002 µM
- IC50 (human Src enzyme): 0.82 µM

Compound: Cc1cc2cc(C(=O)c3cnn(-c4cnc(Oc5cccc(Cl)c5)cc4C)c3N)[nH]c2cc1N1CCCS1(=O)=O [Example 4-2-118, [5-amino-1-[6-(3-chlorophenoxy)-4-methylpyridin-3-yl]pyrazol-4-yl]-[6-(1,1-dioxo-1,2-thiazolidin-2-yl)-5-methyl-1H-indol-2-yl]methanone]
- IC50 (human Lck enzyme; [1]): 0.035 µM
- IC50 (human Yes1 enzyme; [1]): 0.0057 µM
- IC50 (human Src enzyme; [1]): 0.11 µM

Compound: Cc1cc(Oc2ccccc2F)ccc1-n1ncc(C(=O)c2cc3cc(OC4CCN(C(C)C)CC4)c(NS(C)(=O)=O)cc3[nH]2)c1N [Example 5-1-189, N-[2-[5-amino-1-[4-(2-fluorophenoxy)-2-methylphenyl]pyrazole-4-carbonyl]-5-(1-propan-2-ylpiperidin-4-yl)oxy-1H-indol-6-yl] methanesulfonamide]
- IC50 (human Lck enzyme): 0.0015 µM
- IC50 (human Yes1 enzyme): 0.00038 µM
- IC50 (human Src enzyme): 0.0033 µM
